Reference: PubChem BioAssay (NCI)
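Tested at 5 concentrations; 48 h exposure; 96-well plates; endpoints linearly interpolated, else capped at highest concentration. TGI: concentration producing complete growth inhibition.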

How the values were obtained:
Assay in all cases: inhibition of tumour cell growth, NCI panel, 48 h
NCI-H460 lung = tested on: NCI-H460 lung
MDA-MB-435 = tested on: MDA-MB-435
UACC-62 melanoma = tested on: UACC-62 melanoma
786-0 renal = tested on: 786-0 renal
A549 NSCLC = tested on: A549 NSCLC
SN12C renal = tested on: SN12C renal
SF-295 CNS = tested on: SF-295 CNS
OVCAR-5 ovarian = tested on: OVCAR-5 ovarian
U251 CNS = tested on: U251 CNS
A498 renal = tested on: A498 renal
LOX IMVI melanoma = tested on: LOX IMVI melanoma
NCI-H23 lung = tested on: NCI-H23 lung
DU-145 prostate = tested on: DU-145 prostate
NCI-H226 lung = tested on: NCI-H226 lung
OVCAR-8 ovarian = tested on: OVCAR-8 ovarian
HT29 colon = tested on: HT29 colon
NCI/ADR-RES ovarian = tested on: NCI/ADR-RES ovarian
OVCAR-3 ovarian = tested on: OVCAR-3 ovarian
MDA-MB-231 breast = tested on: MDA-MB-231 breast
IGROV1 ovarian = tested on: IGROV1 ovarian
TK-10 renal = tested on: TK-10 renal
CAKI-1 renal = tested on: CAKI-1 renal
MALME-3M melanoma = tested on: MALME-3M melanoma
HS 578T breast = tested on: HS 578T breast
COLO 205 colon = tested on: COLO 205 colon
EKVX NSCLC = tested on: EKVX NSCLC
M14 melanoma = tested on: M14 melanoma
KM12 colon = tested on: KM12 colon
SF-268 CNS = tested on: SF-268 CNS
UO-31 renal = tested on: UO-31 renal
BT-549 breast = tested on: BT-549 breast
MCF7 breast = tested on: MCF7 breast
HCC-2998 colon = tested on: HCC-2998 colon
SK-MEL-2 melanoma = tested on: SK-MEL-2 melanoma
T-47D breast = tested on: T-47D breast
HCT-15 colon = tested on: HCT-15 colon
PC-3 prostate = tested on: PC-3 prostate
SW-620 colon = tested on: SW-620 colon
OVCAR-4 ovarian = tested on: OVCAR-4 ovarian
MDA-N = tested on: MDA-N
SK-OV-3 ovarian = tested on: SK-OV-3 ovarian
ACHN renal = tested on: ACHN renal
SNB-75 CNS = tested on: SNB-75 CNS
HOP-92 NSCLC = tested on: HOP-92 NSCLC
SK-MEL-5 melanoma = tested on: SK-MEL-5 melanoma
SNB-19 CNS = tested on: SNB-19 CNS
NCI-H522 lung = tested on: NCI-H522 lung
HCT-116 colon = tested on: HCT-116 colon
UACC-257 melanoma = tested on: UACC-257 melanoma
HOP-62 NSCLC = tested on: HOP-62 NSCLC
CCRF-CEM leukemia = tested on: CCRF-CEM leukemia
RPMI-8226 leukemia = tested on: RPMI-8226 leukemia
SK-MEL-28 melanoma = tested on: SK-MEL-28 melanoma
K-562 leukemia = tested on: K-562 leukemia

SMILES: Brc1cccc(Nc2ncnc3sc4c(c23)CCC2(C4)OCCO2)c1
- TGI (NCI-H460 lung): > 100 µM
- TGI (MDA-MB-435): 87 µM
- TGI (UACC-62 melanoma): 70.5 µM
- TGI (786-0 renal): > 100 µM
- TGI (A549 NSCLC): > 100 µM
- TGI (SN12C renal): > 100 µM
- TGI (SF-295 CNS): > 100 µM
- TGI (OVCAR-5 ovarian): > 100 µM
- TGI (U251 CNS): > 100 µM
- TGI (A498 renal): 42 µM
- TGI (LOX IMVI melanoma): 40.9 µM
- TGI (NCI-H23 lung): > 100 µM
- TGI (DU-145 prostate): 50.1 µM
- TGI (NCI-H226 lung): 77.6 µM
- TGI (OVCAR-8 ovarian): > 100 µM
- TGI (HT29 colon): > 100 µM
- TGI (NCI/ADR-RES ovarian): 76.4 µM
- TGI (OVCAR-3 ovarian): > 100 µM
- TGI (MDA-MB-231 breast): > 100 µM
- TGI (IGROV1 ovarian): 30.9 µM
- TGI (TK-10 renal): 68.9 µM
- TGI (CAKI-1 renal): > 100 µM
- TGI (MALME-3M melanoma): > 100 µM
- TGI (HS 578T breast): > 100 µM
- TGI (COLO 205 colon): 35.6 µM
- TGI (EKVX NSCLC): > 100 µM
- TGI (M14 melanoma): 68.6 µM
- TGI (KM12 colon): 80.4 µM
- TGI (SF-268 CNS): > 100 µM
- TGI (UO-31 renal): > 100 µM
- TGI (BT-549 breast): 75.2 µM
- TGI (MCF7 breast): > 100 µM
- TGI (HCC-2998 colon): 72.1 µM
- TGI (SK-MEL-2 melanoma): 79.7 µM
- TGI (T-47D breast): 40.9 µM
- TGI (HCT-15 colon): > 100 µM
- TGI (PC-3 prostate): > 100 µM
- TGI (SW-620 colon): 28.9 µM
- TGI (OVCAR-4 ovarian): 94.5 µM
- TGI (MDA-N): > 100 µM
- TGI (SK-OV-3 ovarian): > 100 µM
- TGI (ACHN renal): > 100 µM
- TGI (SNB-75 CNS): 80.9 µM
- TGI (HOP-92 NSCLC): 48.6 µM
- TGI (SK-MEL-5 melanoma): 32.3 µM
- TGI (SNB-19 CNS): > 100 µM
- TGI (NCI-H522 lung): 33.8 µM
- TGI (HCT-116 colon): > 100 µM
- TGI (UACC-257 melanoma): 91.4 µM
- TGI (HOP-62 NSCLC): > 100 µM

SMILES: COc1ccc(N2C(=O)C3c4[nH]c5c(C)cccc5c4C4CCC(c5ccccc5)CC4C3C2=O)cc1 (stereo unspecified)
- TGI (NCI-H460 lung): 18.2 µM
- TGI (MDA-MB-435): 34.3 µM
- TGI (786-0 renal): > 100 µM
- TGI (A549 NSCLC): 24.2 µM
- TGI (SN12C renal): 59.5 µM
- TGI (SF-295 CNS): 40.2 µM
- TGI (OVCAR-5 ovarian): 28.8 µM
- TGI (A498 renal): 39.1 µM
- TGI (LOX IMVI melanoma): > 100 µM
- TGI (NCI-H23 lung): 67.7 µM
- TGI (DU-145 prostate): 31.1 µM
- TGI (NCI-H226 lung): 46.3 µM
- TGI (OVCAR-8 ovarian): 36.8 µM
- TGI (HT29 colon): 21.3 µM
- TGI (NCI/ADR-RES ovarian): 66.4 µM
- TGI (OVCAR-3 ovarian): 60.4 µM
- TGI (MDA-MB-231 breast): 78.2 µM
- TGI (IGROV1 ovarian): 33.5 µM
- TGI (CCRF-CEM leukemia): 4.41 µM
- TGI (TK-10 renal): > 100 µM
- TGI (CAKI-1 renal): 39.3 µM
- TGI (HS 578T breast): 28.6 µM
- TGI (COLO 205 colon): 83.9 µM
- TGI (EKVX NSCLC): 63.4 µM
- TGI (M14 melanoma): 26 µM
- TGI (KM12 colon): 42.2 µM
- TGI (SF-268 CNS): 20.3 µM
- TGI (UO-31 renal): 43.3 µM
- TGI (BT-549 breast): 47.8 µM
- TGI (MCF7 breast): 21.7 µM
- TGI (SK-MEL-2 melanoma): 60.8 µM
- TGI (T-47D breast): 28.6 µM
- TGI (HCT-15 colon): > 100 µM
- TGI (RPMI-8226 leukemia): 30.4 µM
- TGI (PC-3 prostate): 28.2 µM
- TGI (SW-620 colon): 40.5 µM
- TGI (OVCAR-4 ovarian): 26.6 µM
- TGI (SK-MEL-28 melanoma): 27.9 µM
- TGI (MDA-N): 34.3 µM
- TGI (SK-OV-3 ovarian): 34 µM
- TGI (ACHN renal): 43.5 µM
- TGI (SNB-75 CNS): 24.4 µM
- TGI (HOP-92 NSCLC): 41 µM
- TGI (SNB-19 CNS): 76.3 µM
- TGI (NCI-H522 lung): 16.7 µM
- TGI (HCT-116 colon): > 100 µM
- TGI (UACC-257 melanoma): 51.2 µM
- TGI (HOP-62 NSCLC): 27.3 µM

SMILES: COC(=O)C(C)(C)NC(=O)C(Cc1ccccc1)Nc1ncnc2c1ncn2-c1ccc(OC)cc1 (stereo unspecified)
- TGI (NCI-H460 lung): 73.5 µM
- TGI (MDA-MB-435): 32 µM
- TGI (UACC-62 melanoma): > 100 µM
- TGI (786-0 renal): > 100 µM
- TGI (A549 NSCLC): > 100 µM
- TGI (SN12C renal): > 100 µM
- TGI (SF-295 CNS): > 100 µM
- TGI (OVCAR-5 ovarian): > 100 µM
- TGI (U251 CNS): > 100 µM
- TGI (A498 renal): 72.7 µM
- TGI (LOX IMVI melanoma): > 100 µM
- TGI (NCI-H23 lung): > 100 µM
- TGI (DU-145 prostate): > 100 µM
- TGI (NCI-H226 lung): > 100 µM
- TGI (OVCAR-8 ovarian): > 100 µM
- TGI (HT29 colon): 46.6 µM
- TGI (NCI/ADR-RES ovarian): > 100 µM
- TGI (OVCAR-3 ovarian): > 100 µM
- TGI (MDA-MB-231 breast): > 100 µM
- TGI (IGROV1 ovarian): > 100 µM
- TGI (CCRF-CEM leukemia): 35.8 µM
- TGI (TK-10 renal): > 100 µM
- TGI (CAKI-1 renal): > 100 µM
- TGI (HS 578T breast): 79.8 µM
- TGI (COLO 205 colon): > 100 µM
- TGI (EKVX NSCLC): 45.6 µM
- TGI (M14 melanoma): > 100 µM
- TGI (KM12 colon): 96.7 µM
- TGI (SF-268 CNS): > 100 µM
- TGI (UO-31 renal): > 100 µM
- TGI (BT-549 breast): 98.6 µM
- TGI (MCF7 breast): 72.4 µM
- TGI (HCC-2998 colon): > 100 µM
- TGI (K-562 leukemia): > 100 µM
- TGI (SK-MEL-2 melanoma): > 100 µM
- TGI (T-47D breast): 58.2 µM
- TGI (HCT-15 colon): > 100 µM
- TGI (RPMI-8226 leukemia): > 100 µM
- TGI (PC-3 prostate): > 100 µM
- TGI (SW-620 colon): 54.1 µM
- TGI (OVCAR-4 ovarian): > 100 µM
- TGI (SK-MEL-28 melanoma): > 100 µM
- TGI (MDA-N): 43.9 µM
- TGI (SK-OV-3 ovarian): > 100 µM
- TGI (ACHN renal): > 100 µM
- TGI (SNB-75 CNS): 69.1 µM
- TGI (HOP-92 NSCLC): 58.2 µM
- TGI (SK-MEL-5 melanoma): > 100 µM
- TGI (SNB-19 CNS): > 100 µM
- TGI (NCI-H522 lung): 34.2 µM
- TGI (HCT-116 colon): > 100 µM
- TGI (UACC-257 melanoma): > 100 µM
- TGI (HOP-62 NSCLC): > 100 µM
